Experimental data: paper PMC12610274, “Identification of Marrubiin as a Cathepsin C Inhibitor for Treating Rheumatoid Arthritis” (Molecules, 2025)

Assays:
CTSK = biological target: T1, CTSK (Homo sapiens, UniProt P43235); assay: Human recombinant cathepsins isolated enzyme assay, CTSK; type: biochemical; conditions: read-out: CTSK Enz (IC50: μM)
T1 construct: purchased R&D Systems
Description: (§1) The protocol for evaluating the inhibitory potency of compounds against other cathepsins referred to the CTSC activity assay. Recombinant human CTSB, CTSL, CTSS and CTSK for testing were also purchased from R&D Systems Biotechnology Company. Recombinant human Cat G, NE, and PR3 For testing were purchased from MedChemExpress. A multi-functional microplate reader was used to measure the absorption of Z-Leu-Arg-AMC at excitation/emission wavelengths of 380/460 nm to assess the activity changes of CTSB and CTSL, while the absorption of MCA-Arg-Pro-Lys-Pro-Val-Glu-NVAL-Trp-Arg-Lys(DNP)-NH2 at 320/405 nm was measured to evaluate the activity changes of CTSS and CTSK. Different assay buffers were prepared for diluting samples and measuring the activities of specific NSPs: a buffer containing 50 mM Tris and 750 mM NaCl (pH 7.4) was used for NE and PR3; a buffer containing 50 mM Tris, 750 mM NaCl, 5 mM EDTA (pH 7.4) was used for Cat G; and a buffer containing 25 mM MES, 50 mM NaCl, 5 mM DTT (pH 6.0) was used for CTSC. Synthetic substrates were employed to assess the activities of NSPs and CTSC: H-Gly-Arg-AMC for CTSC, N-MeSuc-Ala-Ala-Pro-Val-pNA for NE, aminobenzoyl-Val-Ala-Asp-Cys-Ala-Asp-Gln-ethylenediamine 2,4-dinitrophenyl for PR3, and N-Suc-Ala-Ala-Pro-Phe-pNA for Cat G. Each group of tests was independently repeated at least 3 times, and IC50 values were calculated using SPSS 10.0.

CTSC = biological target: T2, CTSC (Rattus norvegicus, UniProt P80067); assay: AIA model, serum CTSC activity; type: in vivo, Sprague-Dawley rats; conditions: high dose 60 mg/kg gavage, 15 days
T2 construct: from tissue; host or cells: serum of Sprague-Dawley rats (AIA model)
Protocol: (§2) Thirty 4-week-old male Sprague-Dawley rats (weighing 120–130 g) were randomly divided into 6 groups (5 rats per group) after 1 week of adaptive feeding, namely the normal group, model group, low-dose experimental group (15 mg/kg), medium-dose experimental group (30 mg/kg), high-dose experimental group (60 mg/kg), and positive control group (30 mg/kg). Starting from Day 0 of the experiment, rats in the administration groups and model group were injected intradermally with 0.1 mL of CFA into the left hind paw to induce AIA, while rats in the normal group were injected intradermally with an equal volume (0.1 mL) of normal saline as a control. After 13 consecutive days of feeding, rats treated with CFA successfully developed typical AIA symptoms. […] During the experiment, the body weight, mental state, activity ability, hair color changes, and paw appearance changes of the rats were observed and recorded daily. In addition, on Day 0 of the experiment (baseline period), the basic paw volume of all rats was accurately measured using a plethysmometer, which served as a reference standard for subsequent evaluation of inflammation severity. From Day 13 to Day 28 of the experiment, the paw volume of the rats was measured repeatedly every 3 days. The degree of paw swelling was quantified by calculating the change in paw volume relative to the baseline. […] The cytokine levels in serum were measured. […]

[1] = Cytotoxicity assay, RAW264.7 cell line; type: cell-based; conditions: mouse, RAW264.7 cells
Protocol: RAW264.7 cells and U937 cells in the logarithmic growth phase were counted and diluted, and the concentrations of the single-cell suspensions of the two types of cells were adjusted to 5 × 10^4 cells/mL and 3 × 10^4 cells/mL, respectively. After thorough mixing, the cells were seeded into a 96-well plate, with 100 μL of cell suspension added to each well. Prepare the working solution of test compounds using the corresponding medium as the solvent, with the concentration of working solution being 2 times the final test concentration (2.5 μM, 5 μM, 10 μM, 20 μM, and 40 μM). Twenty-four hours after cell seeding, the compound working solutions were added to the compound test wells, and the same volume of medium was added to the negative control wells, followed by continuous incubation for another 24 h. Only the wells with the same volume but without cells served as the blank control group. The CellTiter-Lumi™ luminescent cell viability assay kit (Beyotime Biotechnology, Shanghai, China, C0065XL) was used to detect cell viability according to the standard operating procedures. Each group of tests was independently repeated at least 3 times, and IC50 values were calculated using SPSS 10.0.

Dipeptidyl Peptidase 9 = Dipeptidyl Peptidase 9 (Homo sapiens, UniProt Q86TI2); assay: Recombinant dipeptidyl peptidases isolated enzyme assay, DPP9; type: biochemical; conditions: read-out: Dipeptidyl Peptidase 9 Enz (IC50: μM)
Description: Table 3 Inhibitory effects of marrubiin on dipeptidyl peptidase. | column: Dipeptidyl Peptidase 9 Enz (IC50: μM)

CTSC and NSPs = assay: AIA model, serum CTSC and NSPs activities, stated together; type: in vivo, Sprague-Dawley rats; conditions: rat AIA, low-dose (15 mg/kg) and medium-dose (30 mg/kg) groups
Protocol: as §2

Cat G = biological target: T3, Cat G (Homo sapiens, UniProt P08311); assay: Recombinant NSPs isolated enzyme assay, Cat G; type: biochemical; conditions: read-out: Cat G Enz (IC50: μM)
T3 construct: purchased MedChemExpress
Description: as §1

Dipeptidyl Peptidase 4 = Dipeptidyl Peptidase 4 (Homo sapiens, UniProt P27487); assay: Recombinant dipeptidyl peptidases isolated enzyme assay, DPP4; type: biochemical; conditions: read-out: Dipeptidyl Peptidase 4 Enz (IC50: μM)
Description: Table 3 Inhibitory effects of marrubiin on dipeptidyl peptidase. | column: Dipeptidyl Peptidase 4 Enz (IC50: μM)

NE = NE activity in blood and bone marrow of mice; type: in vivo, C57BL/6 mice; conditions: 30 mg/kg daily gavage, 7 days
Protocol: A total of 25 C57BL/6 mice (6–8 weeks old, weighing approximately 20 g, with equal numbers of males and females) were randomly divided into five groups. Mice in the compound-treated groups were orally administered the compound once daily at doses of 0.3, 3, and 30 mg/kg for 7 consecutive days. […] Mice in the normal group were given an equal volume of normal saline at the same time points. The body weight, death rate, and behavior were observed and recorded daily for one week. After 7 days, bone marrow and blood samples were collected from the mice and lysed using 8% Triton X-100 buffer. The lysates were stored at −20 °C until testing. The activity assays for CTSC and NSPs were performed as described above. The mice were anesthetized and the tissues were taken for H&E staining.

Sequence of Dipeptidyl Peptidase 4 (P27487 whole entry, species assumed): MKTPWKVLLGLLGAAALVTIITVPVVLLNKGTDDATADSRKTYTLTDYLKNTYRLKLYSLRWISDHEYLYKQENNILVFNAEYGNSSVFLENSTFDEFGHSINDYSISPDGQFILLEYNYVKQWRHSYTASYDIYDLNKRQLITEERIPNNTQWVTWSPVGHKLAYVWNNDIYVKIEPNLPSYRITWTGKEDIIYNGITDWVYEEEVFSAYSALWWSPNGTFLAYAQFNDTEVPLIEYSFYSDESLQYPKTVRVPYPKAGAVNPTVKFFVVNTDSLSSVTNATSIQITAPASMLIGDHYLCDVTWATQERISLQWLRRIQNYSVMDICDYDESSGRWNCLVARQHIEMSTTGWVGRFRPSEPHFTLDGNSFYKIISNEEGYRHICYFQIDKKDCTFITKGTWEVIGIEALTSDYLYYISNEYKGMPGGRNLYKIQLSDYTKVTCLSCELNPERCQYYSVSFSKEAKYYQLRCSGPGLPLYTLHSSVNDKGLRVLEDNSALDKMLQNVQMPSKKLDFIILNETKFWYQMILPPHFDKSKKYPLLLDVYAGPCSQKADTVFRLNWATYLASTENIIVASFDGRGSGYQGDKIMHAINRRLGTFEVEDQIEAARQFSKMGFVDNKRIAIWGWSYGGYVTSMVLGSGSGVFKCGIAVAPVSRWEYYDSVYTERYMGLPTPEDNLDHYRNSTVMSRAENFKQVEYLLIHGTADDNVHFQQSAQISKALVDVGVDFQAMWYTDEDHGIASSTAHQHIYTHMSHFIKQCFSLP
Sequence of Dipeptidyl Peptidase 9 (Q86TI2 whole entry, species assumed): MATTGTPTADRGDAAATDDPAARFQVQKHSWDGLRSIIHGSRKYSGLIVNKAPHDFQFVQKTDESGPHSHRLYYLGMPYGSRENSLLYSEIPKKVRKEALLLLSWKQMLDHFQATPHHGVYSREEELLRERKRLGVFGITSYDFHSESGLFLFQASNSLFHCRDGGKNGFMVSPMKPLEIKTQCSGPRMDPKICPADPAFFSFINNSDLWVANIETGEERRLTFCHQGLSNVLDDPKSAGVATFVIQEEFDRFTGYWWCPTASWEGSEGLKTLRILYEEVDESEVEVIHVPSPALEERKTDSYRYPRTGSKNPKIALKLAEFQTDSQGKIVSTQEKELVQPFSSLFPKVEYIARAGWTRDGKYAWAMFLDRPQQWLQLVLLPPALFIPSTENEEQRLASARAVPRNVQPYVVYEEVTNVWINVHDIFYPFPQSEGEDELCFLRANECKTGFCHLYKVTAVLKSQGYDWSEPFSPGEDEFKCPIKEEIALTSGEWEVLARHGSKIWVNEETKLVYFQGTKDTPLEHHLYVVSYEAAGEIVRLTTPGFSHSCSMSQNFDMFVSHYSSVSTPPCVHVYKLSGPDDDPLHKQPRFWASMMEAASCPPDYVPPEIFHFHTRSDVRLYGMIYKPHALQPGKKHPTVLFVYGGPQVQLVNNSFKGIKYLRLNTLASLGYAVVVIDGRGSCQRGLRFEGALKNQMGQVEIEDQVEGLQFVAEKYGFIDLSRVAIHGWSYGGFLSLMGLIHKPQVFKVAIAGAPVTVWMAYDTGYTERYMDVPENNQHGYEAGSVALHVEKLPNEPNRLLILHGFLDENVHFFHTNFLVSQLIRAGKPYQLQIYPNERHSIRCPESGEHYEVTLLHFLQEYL
T1 sequence (P43235 115-329): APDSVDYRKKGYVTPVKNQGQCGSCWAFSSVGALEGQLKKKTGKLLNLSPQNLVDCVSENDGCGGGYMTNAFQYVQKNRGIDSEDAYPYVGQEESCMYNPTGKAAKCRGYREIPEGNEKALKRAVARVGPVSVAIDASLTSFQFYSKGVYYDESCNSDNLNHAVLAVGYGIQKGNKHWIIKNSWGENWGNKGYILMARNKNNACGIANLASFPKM
T2 sequence (P80067 25-462): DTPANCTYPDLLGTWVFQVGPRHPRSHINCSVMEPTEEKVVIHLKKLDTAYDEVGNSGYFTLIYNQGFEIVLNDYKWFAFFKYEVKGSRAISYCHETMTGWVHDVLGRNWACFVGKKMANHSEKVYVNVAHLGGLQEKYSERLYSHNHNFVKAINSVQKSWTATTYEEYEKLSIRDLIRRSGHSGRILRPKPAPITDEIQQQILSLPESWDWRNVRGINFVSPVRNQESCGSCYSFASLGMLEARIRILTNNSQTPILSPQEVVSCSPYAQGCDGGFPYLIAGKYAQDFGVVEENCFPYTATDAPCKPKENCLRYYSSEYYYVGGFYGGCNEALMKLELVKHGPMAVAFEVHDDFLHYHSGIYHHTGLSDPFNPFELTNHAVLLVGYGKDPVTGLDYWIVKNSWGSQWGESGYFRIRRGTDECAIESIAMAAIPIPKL
T3 sequence (P08311 21-255): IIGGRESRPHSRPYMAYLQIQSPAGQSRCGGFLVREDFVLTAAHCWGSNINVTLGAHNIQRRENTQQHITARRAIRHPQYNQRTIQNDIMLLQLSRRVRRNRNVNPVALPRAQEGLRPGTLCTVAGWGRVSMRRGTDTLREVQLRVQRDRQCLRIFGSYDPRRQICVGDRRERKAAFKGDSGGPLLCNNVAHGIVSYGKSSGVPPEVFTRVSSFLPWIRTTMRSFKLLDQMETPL

C[C@@H]1C[C@H]2OC(=O)[C@@]3(C)CCC[C@@](C)([C@@H]23)[C@@]1(O)CCc1ccoc1 [Marrubiin, marrubiin]
IC50 (CTSK): > 5 µM | serum CTSC activity, % of control group (CTSC): approximately 58% | IC50 at 24 h [1]: > 10 µM | IC50 (Dipeptidyl Peptidase 9): > 10 µM | serum activities of CTSC and NSPs (CTSC and NSPs): no significant reduction effect | IC50 (Cat G): > 10 µM | IC50 (Dipeptidyl Peptidase 4): > 10 µM | remaining activity rate of NE (NE; blood): ~9.9% | remaining activity rate of NE (NE; bone marrow): ~20.9%
